From patent US5736356A, “Transglutaminase originating from Crassostrea gigas” (Ajinomoto Co., Inc., priority 1994, dated 1998)
“Also recorded” adds a separate entry of the source. Like-named read-outs stand apart in the source and are kept apart here. Residues, ends and D or L forms follow the SMILES beside them. No end group written: not given here. *: point of attachment. Cbz = O=C(OCc1ccccc1)*

B1: transglutaminase originating from a microorganism: TGase originating from a microorganism; probably the Streptoverticillium calcium-independent BTG (protein, UniProt P81453 77-407, looked up)
Protein-glutamine …: DSDDRVTPPAEPLDRMPDPYRPSYGRAETVVNNYIRKWQQVYSHRDGRKQQMTEEQREWLSYGCVGVTWVNSGQYPTNRLAFASFDEDRFKNELKNGRPRSGETRAEFEGRVAKESFDEEKGFQRAREVASVMNRALENAHDESAYLDNLKKELANGNDALRNEDARSPFYSALRNTPSFKERNGGNHDPSRMKAVIYSKHFWSGQDRSSSADKRKYGDPDAFRPAPGTGLVDMSRDRNIPRSPTSPGEGFVNFDYGWFGAQTEADADKTVWTHGNHYHAPNGSLGAMHVYESKFRNWSEGYSDFDRGAYVITFIPKSWNTAPDKVKQGWP

Tests used:
Type in all cases: biochemical
[1] = biological target: T1, purified transglutaminase originating from Crassostrea gigas (Magallana gigas, UniProt A0A8W8K4D7); conditions: final concentration 1 mM; for Residual Activity: treated at 25° C. for 10 minutes, reaction 37° C. 30 minutes
T1 construct: Met-less mature form starts […]; recombinant enzyme from E. coli or yeast reported equivalent
T1 sequence (A0A8W8K4D7 entry or part of it with the stated changes): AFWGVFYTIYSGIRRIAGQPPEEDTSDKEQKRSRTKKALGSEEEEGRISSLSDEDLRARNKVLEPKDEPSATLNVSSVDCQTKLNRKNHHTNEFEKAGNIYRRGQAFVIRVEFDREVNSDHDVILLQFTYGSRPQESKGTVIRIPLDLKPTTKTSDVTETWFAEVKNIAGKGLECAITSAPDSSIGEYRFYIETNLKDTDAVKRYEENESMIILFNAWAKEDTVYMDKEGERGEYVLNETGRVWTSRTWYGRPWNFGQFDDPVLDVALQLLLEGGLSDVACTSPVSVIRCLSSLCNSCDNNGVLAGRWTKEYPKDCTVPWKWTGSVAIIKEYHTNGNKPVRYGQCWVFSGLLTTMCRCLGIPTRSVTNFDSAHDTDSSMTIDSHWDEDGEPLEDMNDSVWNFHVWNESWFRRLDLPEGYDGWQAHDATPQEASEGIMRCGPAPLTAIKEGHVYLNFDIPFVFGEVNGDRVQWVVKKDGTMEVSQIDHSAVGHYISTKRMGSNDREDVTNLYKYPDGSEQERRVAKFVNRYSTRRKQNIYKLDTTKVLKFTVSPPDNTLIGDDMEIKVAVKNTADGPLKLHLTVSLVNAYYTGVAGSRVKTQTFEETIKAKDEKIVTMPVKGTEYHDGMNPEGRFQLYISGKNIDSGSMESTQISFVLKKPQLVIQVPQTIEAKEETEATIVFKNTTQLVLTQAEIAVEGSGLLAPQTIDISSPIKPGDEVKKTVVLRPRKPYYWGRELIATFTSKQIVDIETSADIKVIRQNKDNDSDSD
Description: The activity of the transglutaminase is determined by reacting the enzyme with dimethylated casein and monodansylcadaverine as substrates and measuring an increase in the fluorescent intensity of casein due to the incorporation of monodansylcadaverine into the dimethylated casein. The composition of the reaction solution is as follows:
To 2.4 ml of the foregoing reaction solution, there is added 20 to 50 μl of the transglutaminase solution followed by carrying out the reaction at 37° C. for 30 min, terminating the reaction by addition of 100 μl of a 500 mM EDTA solution and then determining the fluorescent intensity of the reaction solution (using a device: RF-1500 available from Shimadzu Corporation; excitation wavelength: 350 nm; wavelength of emitted fluorescent rays: 480 nm). In respect of the unit of the activity, that required for increasing the fluorescent intensity by 1.0 within one minute is herein defined to be one unit.
The purified transglutaminase was treated at a temperature of 25° C. for 10 minutes while adding each of a variety of enzyme activity-inhibitory agents and each metal ion in such an amount that the final concentration thereof was equal to 1 mM and then the reaction was carried out at a temperature of 37° C. for 30 minutes using dimethylated casein and monodansylcadaverine as substrates.

[2] = biological target: T1, purified transglutaminase originating from Crassostrea gigas; conditions: synthetic substrate and hydroxylamine
Excerpt: The inventors have investigated the enzyme activity of the purified transglutaminase using a variety of synthetic substrates and hydroxylamine.

[3] = tested on: dimethylated casein and monodansylcadaverine; test: Effect of NaCl and Ca2+ on enzyme activity; conditions: increasing NaCl concentration

Row | Molecule | enzyme activity-inhibitory effect (in words) [1] | Residual Activity [1] | enzyme activity with synthetic substrate (in words) [2] | also measured
1 | [Ba+2] [Ba^2+] | almost no enzyme activity-inhibitory effect | 102% | – | –
2 | NC(=O)C[C@H](NC(=O)OCc1ccccc1)C(=O)NCC(=O)O [CBZ-Asn-Gly, benzyloxycarbonyl asparaginyl glycine] (Cbz-Asn-Gly-OH) | – | – | did not catalyze the reaction | enzyme activity with synthetic substrate (in words) ([2]; listed as benzyloxycarbonyl asparaginyl glycine): did not show any enzyme activity
3 | NC(=O)CC[C@H](NC(=O)OCc1ccccc1)C(=O)O [CBZ-Gln, benzyloxycarbonyl glutamine] | – | – | did not catalyze the reaction | enzyme activity with synthetic substrate (in words) ([2]; listed as benzyloxycarbonyl glutamine): did not show any enzyme activity
4 | NC(=O)CC[C@H](NC(=O)OCc1ccccc1)C(=O)NCC(=O)O [CBZ-Gln-Gly, benzyloxycarbonyl glutaminyl glycine] (Cbz-Gln-Gly-OH) | – | – | catalyzed the reaction | enzyme activity with synthetic substrate (in words) ([2]; listed as benzyloxycarbonyl glutaminyl glycine): showed the enzyme activity
5 | CCOC(=O)CNC(=O)[C@H](CCC(N)=O)NC(=O)OCc1ccccc1 [CBZ-Gln-Gly-OEt] (Cbz-Gln-Gly-OEt) | – | – | catalyzed the reaction | –
6 | [Co+2] [Co^2+] | strongly inhibited the enzyme activity | 54.3% | – | –
7 | [Cu+2] [Cu^2+] | strongly inhibited the enzyme activity; also recorded: extremely high; also recorded: inhibited | 8.8% | – | –
8 | [Mg+2] [Mg^2+] | almost no enzyme activity-inhibitory effect | 98.2% | – | –
9 | [Mn+2] [Mn^2+] | – | 84.7% | – | –
10 | O=C(O)CI [Monoiodoacetic Acid] | high enzyme activity-inhibitory effect | – | – | enzyme activity-inhibitory effect (in words) ([1]; listed as momoiodo acetic acid): inhibited
11 | CCN1C(=O)C=CC1=O [N-Ethylmaleimide] | high enzyme activity-inhibitory effect; also recorded: inhibited | – | – | –
12 | [Ni+2] [Ni^2+] | – | 67.9% | – | –
13 | [Pb+2] [Pb^2+] | strongly inhibited the enzyme activity | 55.5% | – | –
14 | O=S(=O)(F)Cc1ccccc1 [Phenylmethylsulfone Fluoride] | almost no enzyme activity-inhibitory effect | 96.4% | – | –
15 | [Sr+2] [Sr^2+] | almost no enzyme activity-inhibitory effect | 93.8% | – | –
16 | [Zn+2] [Zn^2+] | – | 65.0% | – | –
17 | O=C(O)c1cc[c]([Hg][Cl])cc1 [p-Chloromercuribenzoic Acid] | high enzyme activity-inhibitory effect; also recorded: inhibited | 10.5% | – | –
18 | CBZ-Gln-Gln-Gly: synthetic substrate (Cbz-Gln-Gln-Gly) | – | – | catalyzed the reaction | –
19 | CBZ-Gly- Gly-Gln-Gly: synthetic substrate, SEQ ID NO: 143 (Cbz-GGQG) | – | – | catalyzed the reaction | –
20 | glycyl glutamyl glycine [Gly-Gln-Gly] | – | – | did not catalyze the reaction | enzyme activity with synthetic substrate (in words) ([2]; listed as glycyl glutamyl glycine): did not show any enzyme activity
21 | B1 | – | – | – | effect of NaCl concentration on enzyme activity (in words) [3]: did not show any increase
